The record followed here is patent US10426728B2, “Synergistic liposomal formulation for the treatment of cancer” (priority 2013, dated 2019).

Molecules are shown by their SMILES. Where a name gives a salt, the structure may show the parent alone.

In data set [1] the test system is B16F10 cells. In words: JC-1 mitochondrial membrane potential flow cytometry. The format is cell-based, murine. As to conditions: 7 μg/ml of free CPT, 2 h. The procedure:
Supernatant was carefully removed. 0.5 ml of freshly prepared 5,5′,6,6′-tetrachloro-[…] Iodide (JC-1) working solution containing 1:100 JC-1 stain was added to each pellet. The pellets were resuspended. Cells were incubated in JC-1 working solution for 10-15 min at 37° C. in a CO2 incubator. Cells were washed twice following incubation. Cells were then analyzed by flow cytometry. (BD™ MitoScreen Flow Cytometry Mitochondrial Membrane Potential Detection Kit) (33).
On the technique in general: Flow cytometry measures light scatter and fluorescence of single cells or particles in a stream.

A further data set relates to U937 cells. It counts as cell-based, human. Particulars: 7 μg/ml free CPT, 2 h.
In data set [2] the test system is B16F10 cells. The format is cell-based, murine. As to conditions: 2 h.
Procedure: Murine melanoma cell line B16F10, colorectal adenocarcinoma SW480 cell line, human colon carcinoma HCT116 cell line, rat brain astrocytes and rat C6 glioma cell lines were maintained in Dulbecco Modified Eagle Medium (DMEM) supplemented with 10% fetal bovine serum, sodium pyruvate, 2 mM L-glutamine, penicillin, and streptomycin. […] The cells were incubated at 37° C. in a humidified atmosphere of 5% CO2 in air (10).
Inhibition of 3-(4, 5-dimethylthiozol-2-yl)-2, 5-diphenyltetrazolium bromide (MTT) reduction to insoluble formazan by mitochondrial dehydrogenase was used as a viability parameter for the cells and compared with untreated control. After treatment with drug for 2 or 4 h the cells were washed with 20 mM PBS and incubated with 2 mg/ml MTT solution for 4 h at 37° C.
In another data set the test system is rat C6 glioma cells. As to conditions: 7 μg/ml free CPT, 2 h.
Another data set relates to SW480 cells. In words: MTT viability assay. The format is cell-based, human. Particulars: 7 μg/ml free CPT, 2 h. Background: Tetrazolium assays rely on reduction of a dye to a coloured formazan, in cell work by metabolically active cells.
Data set [3] deals with Ehrlichs ascites carcinoma cells (EAC). It counts as cell-based, mouse. As to conditions: 7 μg/ml free CPT, 2 h.
Procedure: (§1) Murine melanoma cell line B16F10, colorectal adenocarcinoma SW480 cell line, human colon carcinoma HCT116 cell line, rat brain astrocytes and rat C6 glioma cell lines were maintained in Dulbecco Modified Eagle Medium (DMEM) supplemented with 10% fetal bovine serum, sodium pyruvate, 2 mM L-glutamine, penicillin, and streptomycin. Murine macrophage cell line RAW 264.7, MOLT-4 cell line (derived from human acute lymphoblastic leukemia), human leukemia cell lines K-562 and human lymphoma cell line U-937 were maintained in RPMI 1640 medium supplemented with 10% fetal bovine serum, sodium pyruvate, 2 mM L-glutamine, penicillin, and streptomycin. The cells were incubated at 37° C. in a humidified atmosphere of 5% CO2 in air (10). The Ehrlichs ascites carcinoma cells (EAC) were maintained in vivo in Swiss albino mice, by intraperitoneal (i.p.) transplantation of 2×10^6 cells/mouse every 15 days. Cells were obtained from the peritoneal fluid after 15 days, washed in 0.2M PBS and resuspended in RPMI medium supplemented with 10% FBS.
(§2) Inhibition of 3-(4, 5-dimethylthiozol-2-yl)-2, 5-diphenyltetrazolium bromide (MTT) reduction to insoluble formazan by mitochondrial dehydrogenase was used as a viability parameter for the cells and compared with untreated control. […] The reduced formazan was solubilised in DMSO and plates were analyzed by determining the A550 on Thermo [sequence]
Data set [4] deals with human PBMC of healthy donors. It counts as cell-based. Particulars: 7 μg/ml free CPT, 2 h.
Procedure: For isolation of human peripheral blood mononuclear cells from healthy donors (PBMC) heparinized human peripheral blood was obtained from healthy donors and the mononuclear cells (PBMC) were isolated by the density sedimentation on Histopaque-1077 (400×g, 30 min at RT) and washed and resuspended in RPMI 1640 supplemented with 10% FCS, 2 mM Lglutamine, penicillin (100 U/ml), and streptomycin (100 mg/ml) (30). […] Inhibition of 3-(4, 5-dimethylthiozol-2-yl)-2, 5-diphenyltetrazolium bromide (MTT) reduction to insoluble formazan by mitochondrial dehydrogenase was used as a viability parameter for the cells and compared with untreated control. After treatment with drug for 2 or 4 h the cells were washed with 20 mM PBS and incubated with 2 mg/ml MTT solution for 4 h at 37° C. The reduced formazan was solubilised in DMSO and plates were analyzed by determining the A550 on Thermo [sequence]
For data set [5], the system named is B16F10, K562, U937, rat C6 glioma, EAC, MOLT4 and SW480 cell lines. Nature of the data set: In vitro EC50 of free anticancer drugs by MTT. It counts as cell-based. As to conditions: free drug, 2 h treatment. As to the method: The cells were treated with PC:SA liposome (20-350 μg/ml with respect to PC) or free DOX (500-1000 μg/ml) and free CAMPTOSAR (irinotecan hydrochloride, which is a semisynthetic derivative of camptothecin) (500-10,000 μg/ml). After 2 h of treatment effects on cell viability were determined by MTT assay. EC50 values were determined by nonlinear regression analysis of concentration-response data.

Procedure for SW480 cells: as §1, §2
Procedure for U937 cells: as §1, §2
Procedure for rat C6 glioma cells: as §1, §2

As to `CC[C@@]1(O)C(=O)OCc2c1cc1n(c2=O)Cc2cc3ccccc3nc2-1` [CPT, camptothecin], the “green fluorescing monomers (JC-1)” value in the data set on B16F10 cells [1] is given as 7%. In addition, the killing effect entry (in the data set on U937 cells; with SW480 cells; in data set [4]) was “no killing effect” each time. Further, the viability (usually a per cent measure of how many cells are alive, often set against a control) in the data set with B16F10 cells [2] (7 μg/ml free CPT) was found to be 38%; with rat C6 glioma cells it was 71%; in data set [3] it was 56%. Also, in the data set with B16F10 cells [2] (free CPT 3.9 μg/ml (REV equivalent) and 6.1 μg/ml (DRV equivalent)), the cells survived result is on record as “about 38%”.
As for `CCc1c2c(nc3ccc(OC(=O)N4CCC(N5CCCCC5)CC4)cc13)-c1cc3c(c(=O)n1C2)COC(=O)[C@]3(O)CC` [irinotecan hydrochloride], the EC50 (as a rule, the concentration at which the effect is half-maximal) in data set [5] fell in the range of 800 to 5000 mg/L.
